From US20260234159A1, “SMALL MOLECULE TREATMENT OF FATTY LIVER DISEASE AND HCC” (SCANDIEDGE THERAPEUTICS AB, priority 2023, published 2026)
Where two headings read alike, the source gives them in different places.

Columns and labels:
[1] = In vivo toxicological study in rats: clinical observations and body weight; details: 300 mg/kg oral administration
Description: Forty-two male and forty-two female rats of the Wistar strain were allocated to the study. Three groups of three males and three females were given doses of 30, 100 and 300 mg/kg of target compounds (Table 8). The vehicle was 1.5 w/w % HPMC, 1.5 w/w % PS80 in 10 mM PBS, pH 7 and dose volume were 5 mL/kg.
The animals were acclimatised at least 14 day prior to the study and exposed to a 12 hours light, 12 hours dark light cycle. The formulations were administered via oral gavage. Administration occurred once daily in the morning for seven consecutive days.
A check of animal health and welfare status was done at least once on working days and weekend days.
Body weights were recorded the week before and within 24 hours before start of dosing, on Day 3 and on necropsy Day 8.

[2] = In vivo toxicological study in rats: haematology; parameters: species or system rats of the Wistar strain
Description: Forty-two male and forty-two female rats of the Wistar strain were allocated to the study. Three groups of three males and three females were given doses of 30, 100 and 300 mg/kg of target compounds (Table 8). The vehicle was 1.5 w/w % HPMC, 1.5 w/w % PS80 in 10 mM PBS, pH 7 and dose volume were 5 mL/kg. The animals were acclimatised at least 14 day prior to the study and exposed to a 12 hours light, 12 hours dark light cycle. The formulations were administered via oral gavage. Administration occurred once daily in the morning for seven consecutive days. Blood for scheduled haematology and plasma chemistry were taken at necropsy. For plasma chemistry, 0.6 ml blood (lithium heparin) per animal and for haematology, 0.5 ml blood (K2EDTA) per animal. The blood and plasma were analysed using Exigo analyzer and Vetscan equipment. Blood was analysed within 60 min of sampling. On the morning of analysis, the Exigo analyzer was checked against a reference sample provided by the manufacturer, and a control sample analysis cycle was performed (Table 9).

[3] = tested on: HepG2 cells; test: Triglyceride (TAG) measurement assay, one week steatosis model; assay type: cell-based, human; details: Homo sapiens
Summary of the method: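 HepG2 cells steatosis-induced for one week in high-glucose DMEM/10% FBS with 10 μg/ml insulin and 10 μM T0901317, media changed at days 0, 3 and 5, with 10 μM test compound throughout. Triglyceride measured colorimetrically (OD 570 nm); viability by MTT.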

[4] = female, 30 mg/kg oral daily 7 d
[5] = female, 100 mg/kg oral daily 7 d
[6] = female, 300 mg/kg oral daily 7 d
[7] = 168 h, HepG2, 10 μM, one week steatosis induce media, Control 100.00, read-out: TAG (%)

N#Cc1c(NC(=O)c2cccc3ccccc23)sc2c1CCN(C(=O)Nc1ccccc1OC(F)(F)F)C2 [PKL-A159]
tolerability (adverse clinical signs, body weight, clinical pathology parameters) [1]: well tolerated | GRAN [2, 4]: 0.80 10^9/l | HCT [2, 4]: 40.3% | HGB [2, 4]: 14.4 g/dL | LYM [2, 4]: 4.9 10^9/l | MCH [2, 4]: 19.4 pg | MCHC [2, 4]: 35.7 g/dL | MCV [2, 4]: 54.5 fL | MONO [2, 4]: 0.13 10^9/l | PLT [2, 4]: 1028 10^9/l | RBC [2, 4]: 7.39 10^12/l | RDW % [2, 4]: 14.1% | WBC [2, 4]: 5.9 10^9/l | GRAN [2, 5]: 0.77 10^9/l | HCT [2, 5]: 41.2% | HGB [2, 5]: 14.5 g/dL | LYM [2, 5]: 5.8 10^9/l | MCH [2, 5]: 18.9 pg | MCHC [2, 5]: 35.2 g/dL | MCV [2, 5]: 53.8 fL | MONO [2, 5]: 0.10 10^9/l | PLT [2, 5]: 994 10^9/l | RBC [2, 5]: 7.66 10^12/l | RDW % [2, 5]: 14.6% | WBC [2, 5]: 6.7 10^9/l | GRAN [2, 6]: 0.93 10^9/l | HCT [2, 6]: 41.1% | HGB [2, 6]: 14.5 g/dL | LYM [2, 6]: 5.3 10^9/l | MCH [2, 6]: 19.4 pg | MCHC [2, 6]: 35.2 g/dL | MCV [2, 6]: 55.2 fL | MONO [2, 6]: 0.17 10^9/l | PLT [2, 6]: 808 10^9/l | RBC [2, 6]: 7.45 10^12/l | RDW % [2, 6]: 14.4% | WBC [2, 6]: 6.4 10^9/l | GRAN ([2]; male, 30 mg/kg oral daily 7 d): 1.03 10^9/l | HCT ([2]; male, 30 mg/kg oral daily 7 d): 40.9% | HGB ([2]; male, 30 mg/kg oral daily 7 d): 14.5 g/dL | LYM ([2]; male, 30 mg/kg oral daily 7 d): 2.8 10^9/l | MCH ([2]; male, 30 mg/kg oral daily 7 d): 19.9 pg | MCHC ([2]; male, 30 mg/kg oral daily 7 d): 35.4 g/dL | MCV ([2]; male, 30 mg/kg oral daily 7 d): 56.3 fL | MONO ([2]; male, 30 mg/kg oral daily 7 d): 0.10 10^9/l | PLT ([2]; male, 30 mg/kg oral daily 7 d): 1117 10^9/l | RBC ([2]; male, 30 mg/kg oral daily 7 d): 7.26 10^12/l | RDW % ([2]; male, 30 mg/kg oral daily 7 d): 15.1% | WBC ([2]; male, 30 mg/kg oral daily 7 d): 3.9 10^9/l | GRAN ([2]; male, 100 mg/kg oral daily 7 d): 1.43 10^9/l | HCT ([2]; male, 100 mg/kg oral daily 7 d): 42.4% | HGB ([2]; male, 100 mg/kg oral daily 7 d): 14.9 g/dL | LYM ([2]; male, 100 mg/kg oral daily 7 d): 7.1 10^9/l | MCH ([2]; male, 100 mg/kg oral daily 7 d): 19.9 pg | MCHC ([2]; male, 100 mg/kg oral daily 7 d): 35.3 g/dL | MCV ([2]; male, 100 mg/kg oral daily 7 d): 56.4 fL | MONO ([2]; male, 100 mg/kg oral daily 7 d): 0.23 10^9/l | PLT ([2]; male, 100 mg/kg oral daily 7 d): 974 10^9/l | RBC ([2]; male, 100 mg/kg oral daily 7 d): 7.51 10^12/l | RDW % ([2]; male, 100 mg/kg oral daily 7 d): 15.4% | WBC ([2]; male, 100 mg/kg oral daily 7 d): 8.7 10^9/l | GRAN ([2]; male, 300 mg/kg oral daily 7 d): 1.00 10^9/l | HCT ([2]; male, 300 mg/kg oral daily 7 d): 42.4% | HGB ([2]; male, 300 mg/kg oral daily 7 d): 14.8 g/dL | LYM ([2]; male, 300 mg/kg oral daily 7 d): 4.6 10^9/l | MCH ([2]; male, 300 mg/kg oral daily 7 d): 19.6 pg | MCHC ([2]; male, 300 mg/kg oral daily 7 d): 35.1 g/dL | MCV ([2]; male, 300 mg/kg oral daily 7 d): 55.8 fL | MONO ([2]; male, 300 mg/kg oral daily 7 d): 0.10 10^9/l | PLT ([2]; male, 300 mg/kg oral daily 7 d): 1200 10^9/l | RBC ([2]; male, 300 mg/kg oral daily 7 d): 7.59 10^12/l | RDW % ([2]; male, 300 mg/kg oral daily 7 d): 15.3% | WBC ([2]; male, 300 mg/kg oral daily 7 d): 5.7 10^9/l | activity at 10 µM [3, 7]: 4.54%

N#Cc1c(NC(=O)c2cccc3ccccc23)sc2c1CCN(CC(=O)Nc1cccc(Br)c1)C2 [PKL-B171]
tolerability (adverse clinical signs, body weight, clinical pathology parameters) [1]: well tolerated | GRAN [2, 4]: 0.77 10^9/l | HCT [2, 4]: 43.0% | HGB [2, 4]: 15.3 g/dL | LYM [2, 4]: 4.6 10^9/l | MCH [2, 4]: 18.9 pg | MCHC [2, 4]: 35.6 g/dL | MCV [2, 4]: 53.3 fL | MONO [2, 4]: 0.13 10^9/l | PLT [2, 4]: 933 10^9/l | RBC [2, 4]: 8.08 10^12/l | RDW % [2, 4]: 14.6% | WBC [2, 4]: 5.5 10^9/l | GRAN [2, 5]: 0.77 10^9/l | HCT [2, 5]: 40.8% | HGB [2, 5]: 14.4 g/dL | LYM [2, 5]: 4.4 10^9/l | MCH [2, 5]: 19.7 pg | MCHC [2, 5]: 35.4 g/dL | MCV [2, 5]: 55.5 fL | MONO [2, 5]: 0.10 10^9/l | PLT [2, 5]: 1106 10^9/l | RBC [2, 5]: 7.36 10^12/l | RDW % [2, 5]: 14.1% | WBC [2, 5]: 5.2 10^9/l | GRAN [2, 6]: 1.23 10^9/l | HCT [2, 6]: 40.5% | HGB [2, 6]: 14.4 g/dL | LYM [2, 6]: 5.7 10^9/l | MCH [2, 6]: 19.1 pg | MCHC [2, 6]: 35.7 g/dL | MCV [2, 6]: 53.5 fL | MONO [2, 6]: 0.17 10^9/l | PLT [2, 6]: 1027 10^9/l | RBC [2, 6]: 7.55 10^12/l | RDW % [2, 6]: 14.2% | WBC [2, 6]: 7.1 10^9/l | GRAN ([2]; male, 30 mg/kg oral daily 7 d): 1.17 10^9/l | HCT ([2]; male, 30 mg/kg oral daily 7 d): 40.6% | HGB ([2]; male, 30 mg/kg oral daily 7 d): 14.4 g/dL | LYM ([2]; male, 30 mg/kg oral daily 7 d): 6.3 10^9/l | MCH ([2]; male, 30 mg/kg oral daily 7 d): 19.7 pg | MCHC ([2]; male, 30 mg/kg oral daily 7 d): 35.4 g/dL | MCV ([2]; male, 30 mg/kg oral daily 7 d): 55.5 fL | MONO ([2]; male, 30 mg/kg oral daily 7 d): 0.17 10^9/l | PLT ([2]; male, 30 mg/kg oral daily 7 d): 991 10^9/l | RBC ([2]; male, 30 mg/kg oral daily 7 d): 7.31 10^12/l | RDW % ([2]; male, 30 mg/kg oral daily 7 d): 14.8% | WBC ([2]; male, 30 mg/kg oral daily 7 d): 7.7 10^9/l | GRAN ([2]; male, 100 mg/kg oral daily 7 d): 1.30 10^9/l | HCT ([2]; male, 100 mg/kg oral daily 7 d): 43.2% | HGB ([2]; male, 100 mg/kg oral daily 7 d): 15.2 g/dL | LYM ([2]; male, 100 mg/kg oral daily 7 d): 6.6 10^9/l | MCH ([2]; male, 100 mg/kg oral daily 7 d): 20.1 pg | MCHC ([2]; male, 100 mg/kg oral daily 7 d): 35.2 g/dL | MCV ([2]; male, 100 mg/kg oral daily 7 d): 57.1 fL | MONO ([2]; male, 100 mg/kg oral daily 7 d): 0.17 10^9/l | PLT ([2]; male, 100 mg/kg oral daily 7 d): 981 10^9/l | RBC ([2]; male, 100 mg/kg oral daily 7 d): 7.57 10^12/l | RDW % ([2]; male, 100 mg/kg oral daily 7 d): 14.9% | WBC ([2]; male, 100 mg/kg oral daily 7 d): 8.1 10^9/l | GRAN ([2]; male, 300 mg/kg oral daily 7 d): 1.40 10^9/l | HCT ([2]; male, 300 mg/kg oral daily 7 d): 43.6% | HGB ([2]; male, 300 mg/kg oral daily 7 d): 15.4 g/dL | LYM ([2]; male, 300 mg/kg oral daily 7 d): 7.0 10^9/l | MCH ([2]; male, 300 mg/kg oral daily 7 d): 19.6 pg | MCHC ([2]; male, 300 mg/kg oral daily 7 d): 35.4 g/dL | MCV ([2]; male, 300 mg/kg oral daily 7 d): 55.4 fL | MONO ([2]; male, 300 mg/kg oral daily 7 d): 0.20 10^9/l | PLT ([2]; male, 300 mg/kg oral daily 7 d): 1115 10^9/l | RBC ([2]; male, 300 mg/kg oral daily 7 d): 7.87 10^12/l | RDW % ([2]; male, 300 mg/kg oral daily 7 d): 15.1% | WBC ([2]; male, 300 mg/kg oral daily 7 d): 8.6 10^9/l | activity at 10 µM [3, 7]: 21.1% | activity at 10 µM ([3]; HepG2, 168 h, ratio between TAG content and cell viability, Control 100.0, read-out: TAG/cell viability): 95.7%
